EP1007549B1, “COMPOSITIONS AND METHODS FOR HIGHLY EFFICIENT TRANSFECTION” (Innovata Plc, priority 1997, dated 2006)

Key:
KLN 205 cells [1] = assay: Transfection of KLN 205 cells, luminescence and X-gal; assay type: cell-based, mouse; settings: for % expressing cells / average light units: 120 µM chloroquine, 2 µg DNA/well; for average light units: charge ratio +2
human dendritic cells = assay: Transfection of human dendritic cells with pEGFP-N1, count of fluorescent positive cells; assay type: cell-based
Cos7 cells = assay: Transfection of Cos cells with pCMVβ, Galacto-Light β-galactosidase assay; assay type: cell-based, monkey; settings: chloroquine, 5 hours, triplicate
Procedure: The DNA and complex solutions were made as follows: • DNA solution: 100 µg/ml pCMVβ, 25 mM phosphate pH 7.4, 0.6 M NaCl. Complex solution: 100 µg/ml pCMVβ, 25 mM phosphate pH 7.4, 0.6 M NaCl, 200 µg/ml K6CL22. These solutions were incubated at room temperature for 1 hour and then 4°C overnight. Cos cells were seeded at 1×10^5 cells per well in 6 well plates (in DMEM, 10% Fetal calf serum (FCS)) 24 hours before incubation with complex or DNA.
The DNA and complex solutions were diluted into PEG diluent (10% PEG 8000, 25 mM phosphate pH 7.4, 37.5 mM NaCl) to a final DNA concentration of 20 µg/ml. Just prior to transfection the Cos cells were washed with PBS and 875 µl RATQ medium (RAT medium with 137.14 µM chloroquine) was added per well. 125 µl of diluted complex or DNA solution was then added per well and the cells were incubated at 37°C for 5 hours. […] 100 µl of Reaction buffer is added to each tube, the samples are incubated at room temperature for 60 mins and then analyzed using Light Emission Accelerator and a Barthoid lumat LB 9501 luminometer. The protein concentration of the cleared cell lysate was measured using the Bio-Rad DC protein assay kit (Bio-Rad). The results are then expressed as relative light units per mg of protein (Figure 7). […]

[2] = Photon correlation spectroscopy (PCS) particle size of K6CL22-DNA complexes; assay type: physicochemical; settings: 150mM NaCl, one hour at room temperature, DNA 40 µg/ml
Procedure: Complexes between K6CL22 and DNA were formed in the following way in a laminar flow hood: A stock solution of K6CL22 (typically 8-12mg/ml) was stored in water at -20°C. This was thawed and diluted to 4-400µg/ml in either 10mM HEPES pH7.4 (Hepes) or 10mM HEPES/150mM NaCl pH 7.4 (HBS). (It should be noted that these non-reducing conditions favor the formation of peptide dimers via disulfide bonding between peptides of cysteine residues in the peptide). A stock solution of pCMVβ plasmid DNA (typically 2-4mg/ml in either water or TE buffer) was diluted to 40 µg/ml in Hepes or HBS. Peptide (typically 0.4-1ml) was added to an equal volume of diluted DNA. Different target ratios of Peptide:DNA were achieved by varying the concentration of added peptide. Samples were immediately mixed by gently sucking up and down in a pipette tip and left to incubate at room temperature for a minimum of one hour or if required overnight at 4°C.
In Fig. 1, peptide and DNA were mixed as described above and incubated over night at 4°C. The final DNA concentration was 40µg/ml. […]
For PCS analysis the buffers used in the preparation of samples were filtered through 20nm filters. […] Samples were allowed to equilibrate to 25°C prior to measuring, and an average Zav was determined from a minimum of three measurements. […] Zav and intensity and volume distributions were determined using Malvern PC S software. […]

HepG2 cells = assay: Transfection of HepG2 cells in the presence of serum; assay type: cell-based; settings: 10% FCS, optimum charge ratio for each peptide, pCMVβ
Procedure: These transfection complexes were then tested for their comparative ability to transfect HepG2 cells in the presence of 10% FCS (Figure 32).

KLN 205 cells [3] = assay: Uptake of YOYO-1 labelled DNA complexes by KLN 205 cells (FACScan); assay type: cell-based, mouse
Procedure: KLN 205 cells were plated at a density of 1.5×10^5 cells per well in 6 well plates one day prior to the addition of DNA. Plasmid DNA (pCMVgal) was labeled with the fluorescent dye: YOYO-1 (Molecular Probes, Eugene, OR) at a ratio of 1 dye molecule per 100 bp (i.e. 1.5 µl of a 10 µM YOYO-1 solution per µg of DNA). The DNA was diluted to 40 µg/ml with 10 mM HEPES, pH 7.3. […] The transfection complex solution was left for 1 hour at room temperature before it was applied to the cells in EMEM/120 µM chloroquine with or without FCS at a DNA concentration of 2 µg/well (i.e. 100 µl of complex added to 900 µl medium for one well). After 4 hours of incubation at 37°C the cells were washed twice with PBS and harvested with Trypsin/EDTA. The cell associated fluorescence was analyzed using a FACScan (Becton Dickinson).

CC[C@H](C)[C@H](NC(=O)[C@H](CC(N)=O)NC(=O)[C@H](CS)NC(=O)[C@H](CCSC)NC(=O)[C@H](CCCNC(=N)N)NC(=O)[C@H](CCC(=O)O)NC(=O)[C@H](Cc1ccc(O)cc1)NC(=O)[C@H](C)NC(=O)[C@H](CO)NC(=O)[C@H](CCCNC(=N)N)NC(=O)[C@@H](NC(=O)[C@H](CCCCN)NC(=O)[C@H](CCCNC(=N)N)NC(=O)CNC(=O)[C@H](CC(N)=O)NC(=O)[C@H](CCC(=O)O)NC(=O)CNC(=O)[C@H](CCCNC(=N)N)NC(=O)[C@H](Cc1c[nH]c2ccccc12)NC(=O)[C@H](Cc1ccccc1)NC(=O)CNC(=O)[C@H](CC(C)C)NC(=O)[C@H](Cc1ccccc1)NC(=O)CNC(=O)CNC(=O)[C@H](CCCCN)NC(=O)[C@H](CCCCN)NC(=O)[C@H](CCCCN)NC(=O)[C@H](CCCCN)NC(=O)[C@H](CCCCN)NC(=O)[C@@H](N)CCCCN)[C@@H](C)O)C(=O)N[C@@H](CC(C)C)C(=O)N[C@@H](CCCCN)C(=O)NCC(=O)N[C@@H](CCCCN)C(=O)O [K6CL22]
gene expression compared to NBC32 complexed plasmid DNA (KLN 205 cells [1]): higher
% expressing cells (KLN 205 cells [1]; absence of FCS): 35%
average light units (KLN 205 cells [1]; absence of FCS): 3000 x 10^6 RLU
% expressing cells (KLN 205 cells [1]; presence of FCS): 5%
average light units (KLN 205 cells [1]; presence of FCS): 77 x 10^6 RLU
transfection efficiency, CL22-complexed versus CL26-complexed DNA (human dendritic cells; Figure 35, peptide/DNA ratio between 2 and 2.6): greater
transfection of Cos cells (β-galactosidase, relative light units per mg of protein) (Cos7 cells): very efficient transfection
size of large particles/aggregates of complex [2]: approx. 1000 nm
transfection compared with polylysine peptides or a histone based peptide (HepG2 cells): greater
uptake of complexed DNA compared to DNA complexed with a polylysine peptide (KLN 205 cells [3]; charge ratio +2, 120 µM chloroquine, 4 hours): taken up as efficiently
uptake of complexed DNA compared to a polylysine peptide, presence of FCS (KLN 205 cells [3]; in the presence of FCS): less than that of a polylysine peptide

CC[C@H](C)[C@H](NC(=O)[C@H](CC(N)=O)NC(=O)[C@H](CS)NC(=O)[C@H](CCSC)NC(=O)[C@H](CCCNC(=N)N)NC(=O)[C@H](CCC(=O)O)NC(=O)[C@H](Cc1ccc(O)cc1)NC(=O)[C@H](C)NC(=O)[C@H](CO)NC(=O)[C@H](CCCNC(=N)N)NC(=O)[C@@H](NC(=O)[C@H](CCCCN)NC(=O)[C@H](CCCNC(=N)N)NC(=O)CNC(=O)[C@H](CC(N)=O)NC(=O)[C@H](CCC(=O)O)NC(=O)CNC(=O)[C@H](CCCNC(=N)N)NC(=O)[C@H](Cc1c[nH]c2ccccc12)NC(=O)[C@H](Cc1ccccc1)NC(=O)CNC(=O)[C@H](CC(C)C)NC(=O)[C@H](Cc1ccccc1)NC(=O)CNC(=O)CNC(=O)[C@H](CCCCN)NC(=O)[C@H](CCCCN)NC(=O)[C@H](CCCCN)NC(=O)[C@H](CCCCN)NC(=O)[C@H](CCCCN)NC(=O)[C@@H](N)CCCCN)[C@@H](C)O)C(=O)N[C@@H](CC(C)C)C(=O)N[C@@H](CCCCN)C(=O)NCC(=O)N[C@@H](CCCCN)C(=O)O [K6CL22 monomer]
transfection of dendritic cells, monomer versus dimer (human dendritic cells; peptide/DNA ratio between 2.0 and 4.0): transfects dendritic cells poorly compared with CL22 dimer
effect of FCS on transfection efficiency (human dendritic cells; presence of FCS compared to absence of FCS): greatly reduced

CC[C@H](C)[C@H](NC(=O)[C@H](CC(N)=O)NC(=O)[C@H](CS)NC(=O)[C@H](CCSC)NC(=O)[C@H](CCCNC(=N)N)NC(=O)[C@H](CCC(=O)O)NC(=O)[C@H](Cc1ccc(O)cc1)NC(=O)[C@H](C)NC(=O)[C@H](CO)NC(=O)[C@H](CCCNC(=N)N)NC(=O)[C@@H](NC(=O)[C@H](CCCCN)NC(=O)[C@H](CCCNC(=N)N)NC(=O)CNC(=O)[C@H](CC(N)=O)NC(=O)[C@H](CCC(=O)O)NC(=O)CNC(=O)[C@H](CCCNC(=N)N)NC(=O)[C@H](Cc1c[nH]c2ccccc12)NC(=O)[C@H](Cc1ccccc1)NC(=O)CNC(=O)[C@H](CC(C)C)NC(=O)[C@H](Cc1ccccc1)NC(=O)CNC(=O)CNC(=O)[C@H](CCCCN)NC(=O)[C@H](CCCCN)NC(=O)[C@H](CCCCN)NC(=O)[C@H](CCCCN)NC(=O)[C@H](CCCCN)NC(=O)[C@H](CCCCN)NC(=O)[C@H](CCCCN)NC(=O)[C@H](CCCCN)NC(=O)[C@H](CCCCN)NC(=O)[C@H](CCCCN)NC(=O)[C@H](CCCCN)NC(=O)[C@@H](N)CCCCN)[C@@H](C)O)C(=O)N[C@@H](CC(C)C)C(=O)N[C@@H](CCCCN)C(=O)NCC(=O)N[C@@H](CCCCN)C(=O)O [CL26]
transfection efficiency, CL26-complexed versus CL22-complexed DNA (human dendritic cells; Figure 35, peptide/DNA ratio between 1 and 1.8): higher efficiency
transfection efficiency, CL26-complexed versus CL22-complexed DNA (human dendritic cells; Figures 33 and 34): higher efficiency
